Source: US6565864B2, “Skin care product containing retinoids and phytoestrogens in a dual compartment package” (Unilever Home & Personal Care USA, a division of Conopco, …, priority 2000, dated 2003)
Where two headings read alike, the source gives them in different places.

Columns and labels:
CRABP-2 = CRABP-2 protein expression in human adult fibroblasts (dot blot immunostaining) as a measure of retinoid activity; format: cell-based; conditions: for CRABP-2 % as Control: control = 100%; for CRABP-2 production: human adult fibroblasts; for Synergy of phytoestrogen with retinoids (in words): soluble form, CRABP-2 in fibroblasts
Description: Human adult fibroblasts obtained from sun-protected inner arm of 25-30 year […] volunteer were used in this. Cells were grown in 1:1 DMEM/Hams F12 media containing 10% FBS, maintained at 37° C. in a 5% CO2 atmosphere under normal atmosphere oxygen tension. Third passage adult fibroblasts were grown in DMEM media with 10% FBS in 12-well plates at a seeding density of 2500 cells/ml/well. The cells at 80% confluence were rinsed in serum free and phenol red free (PRF) DMEM media twice. Pre-treatment with phyto-compounds for 4 hours was conducted and then dosed with retinoids and was incubated for 48 hours. After the incubation, the wells were washed twice with 1×PBS and the cell monolayer was harvested in 100 μl cell lysis buffer (contains 1×PBS, 1% Triton X, 0.5% sodium deoxycholate, 0.1% SDS containing protease inhibitor (10 mg/ml PMSF in isopropanol, 10 μl/ml). The suspension was spun at 14000 rpm for 10 minutes, the supernatant collected and an aliquot of this supernatant was used for protein quantification. Protein concentration was determined using Pierce protein kit. The remainder of 100 μl supernatant (cell lysate) was denatured in a mixture of 40 μl sample buffer (NOVEX) and 0.5% Beta mercaptoethanol (BME) and by boiling the sample for 5 minutes.
(b) Detection of Cellular Retinoic Acid Binding Protein 2 (CRABP-2)
These proteins act in regulating the intracellular concentration of retinoids by acting as both storage or shuttle proteins in retinoid metabolism. High or low levels of retinoids cause cell damage, including cell death, therefore regulation of constant levels of retinoids and its binding proteins are very critical for cell survival. The levels of this protein are regulated by the amount of retinoic acid within the cells. Higher cellular levels of retinoids increase the expression of CRABP-2. Therefore, the amount of this protein in the cells, is a measure of the retinoid activity of the cells. Skin cells contain high levels of CRABP-2 both in the epidermis and the dermis. CRABP-2 response to retinoid administration in fibroblasts in vitro is used as a reproducible measure of retinoid bioactivity that predict human skin responses. […] Increase in CRABP-2 is also associated with increased epidermal differentiation, and dermal retinoid action. Therefore, in these studies CRABP-2 expression of fibroblasts was used as a measure of retinoid activity leading to increased epidermal differentiation (skin conditioning and dry skin benefit) and dermal collagen and extracellular matrix synthesis (anti-aging, anti-wrinkling benefits).
To measure the levels of CRABP-2 in the fibroblasts, the equal amount of protein of cell supernatant were loaded onto nitrocellulose blots in a dot blot apparatus as instructed by the manufacturer, and immunostaining was carried out using monoclonal antibodies to CRABP-2 according to standard procedures. The CRABP-2 protein band was visualized in the Dot Blots using the chemiluminescence system obtained from Santa Cruz Biotechnology (SantaCruz, Calif.). The bands in the film were quantitated by dens tometric scanning, the data from the triplicate samples were calculated as % of control and expressed in the following tables as % increase over control (with control as 100%) +/−SD triplicates.

[1] = Stability of retinol in aqueous ethanol in the presence of phytoestrogenic flavonoids (OD 360 nm); format: physicochemical; conditions: for Retinol degraded: 0.001 %
Description: Retinol was dissolved as a 10% solution in aqueous ethanol (1:1 water:ethanol). This solution was diluted to 0.001%, or approximately 30 μM). This solution gave an OD of about 0.35 absorption unit at 360 nm in a 96 well plate spectrophotometer.
Aqueous ethanolic stock solutions of the genistein, daidzein were prepared as 0.1%, 0.01% or 0.001%. To 200 μl of 0.001% retinol solution in a 96 well plate was added 20 μl of the flavonoid (i.e. 1-10 dilution) giving a final flavonoid concentration of 0.01, 0.001 and 0.0001%. The plates were mixed and an initial OD reading was taken at 360 nm. The plates were incubated at room temperature in the dark for up to 2 days and subsequent readings were taken at 8, 24 and 48 hours. The OD readings at these time points were normalized to the 0 time point reading. The retinol stability was expressed as % of retinol (OD reading) at 0 time.
The following tables show the effect of genistein and daidzein on destabilizing retinol. The experiment was done as described in methods section. The OD readings from duplicate measurements were averaged and given here.

[2] = 100 nM retinoid alone, 48 hours

O=c1c(-c2ccc(O)cc2)coc2cc(O)ccc12 [Daidzein]
CRABP-2 % as Control (CRABP-2; 1 μM phytoestrogen alone): 513 +/− 227%
CRABP-2 production (CRABP-2; 1 μM phytoestrogen alone): 1.49 +/− 0.66
Synergy of phytoestrogen with retinoids (in words) (CRABP-2): stimulate retinoid activity in a synergistic manner
Effect of the flavonoid on retinol stability (in words) [1]: marked increases in the instability of retinol

CC1=C(/C=C/C(C)=C/C=C/C(C)=C/CO)C(C)(C)CCC1 [Retinol]
Retinol degraded ([1]; 8 h): 8%
Retinol degraded ([1]; 24 h): 14%
Retinol degraded ([1]; 48 h): 19%

CCCCC/C=C\C/C=C\CCCCCCCC(=O)OC/C=C(C)/C=C/C=C(C)/C=C/C1=C(C)CCCC1(C)C [Retinyl Linoleate]
CRABP-2 % as Control (CRABP-2; 100 nM retinoid alone): 181 +/− 110%
CRABP-2 production (CRABP-2; [2]): 0.52 +/− 0.3

O=c1c(-c2ccc(O)cc2)coc2cc(O)cc(O)c12 [Genistein]
CRABP-2 stimulation (in words) (CRABP-2; 1 μM alone, delivered in DMSO: ethanol): stimulated CRABP-2 significantly
CRABP-2 % as Control (CRABP-2; 1 μM phytoestrogen alone): 655 +/− 247%
CRABP-2 production (CRABP-2; 1 μM phytoestrogen alone): 1.9 +/− 0.71
Synergy of phytoestrogen with retinoids (in words) (CRABP-2): stimulate retinoid activity in a synergistic manner
Effect of the flavonoid on retinol stability (in words) ([1]; 0.0001-0.01% flavonoid with 0.001% retinol): marked increases in the instability of retinol

CC(=O)OC/C=C(C)/C=C/C=C(C)/C=C/C1=C(C)CCCC1(C)C [Retinyl Acetate]
CRABP-2 % as Control (CRABP-2; 100 nM retinoid alone): 209 +/− 118%
CRABP-2 production (CRABP-2; [2]): 0.60 +/− 0.32

CC1=C(/C=C/C(C)=C/C=C/C(C)=C/C(=O)O)C(C)(C)CCC1 [Retinoic acid, reference compound]
CRABP-2 % as Control (CRABP-2; 1 nM retinoid alone): 335 +/− 162%
CRABP-2 production (CRABP-2; 1 nM retinoid alone, 48 hours): 0.97 +/− 0.47
CRABP-2 % as Control (CRABP-2; 10 nM retinoid alone): 428 +/− 101%
CRABP-2 production (CRABP-2; 10 nM retinoid alone, 48 hours): 1.24 +/− 0.29

CCCCCCCCCCCCCCCC(=O)OC/C=C(C)/C=C/C=C(C)/C=C/C1=C(C)CCCC1(C)C [Retinyl Palmitate]
CRABP-2 % as Control (CRABP-2; 100 nM retinoid alone): 434 +/− 177%
CRABP-2 production (CRABP-2; [2]): 1.26 +/− 0.51
